Legend:
[1] = target: T1, Fatty acid-binding protein, heart (Homo sapiens, UniProt P05413); assay: Binding affinity to human FABP3 expressed in Escherichia coli BL21 (DE3) in DMPC liposomes by surface plasmon resonance analysis
[2] = target: T1, Fatty acid-binding protein, heart; assay: Binding affinity to human FABP3 expressed in Escherichia coli BL21 (DE3) at 60 uM by surface plasmon resonance analysis
[3] = target: T1, Fatty acid-binding protein, heart; assay: Binding affinity to human FABP3 expressed in Escherichia coli BL21 (DE3) at 10 uM in DMPC liposomes by surface plasmon resonance analysis

T1 sequence (P05413 whole entry): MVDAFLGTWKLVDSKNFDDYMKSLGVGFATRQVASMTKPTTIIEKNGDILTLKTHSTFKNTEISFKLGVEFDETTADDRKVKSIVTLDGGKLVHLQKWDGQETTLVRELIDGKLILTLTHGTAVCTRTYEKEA

Kd [1] | Kd [3] | SMILES | Kd [2]
2.76 nM |  | CC/C=C\C/C=C\C/C=C\CCCCCCCC(=O)O | 
 | 401 nM | CCCCCCCCCCC/C=C\CCCCC(=O)O | 54200 nM
 |  | CCCCCCCCCCCCCC(=O)OC[C@H](COP(=O)(O)OCC[N+](C)(C)C)OC(=O)CCCCCCCCCCCCC | 3.6 nM

Reference: ChEMBL document CHEMBL3120145, “Interaction kinetics of liposome-incorporated unsaturated fatty acids with fatty acid-binding protein 3 by surface plasmon resonance” (Bioorg Med Chem, 2014)
